Measurements reported in ChEMBL document CHEMBL1129437, “New purines and purine analogs as modulators of multidrug resistance” (J Med Chem, 1996).

How the values were obtained:
Mus musculus [1] = assay: Ratio of survival time of mice treated with VCR (0.25 mg/kg ip)+modulator given at the optimal dose of 100 mg/kg po/survival time of mice treated with VCR alone.; type: functional
Mus musculus [2] = assay: Ratio of survival time of mice treated with VCR (0.25 mg/kg ip)+modulator given at the optimal dose of 50 mg/kg po/survival time of mice treated with VCR alone.; type: functional
Mus musculus [3] = assay: Ratio of survival time of mice treated with VCR (0.25 mg/kg ip)+modulator given at the optimal dose of 100 mg/kg po/survival time of mice treated with VCR alone; type: functional
Mus musculus [4] = assay: Ratio of survival time of mice treated with VCR (0.25 mg/kg ip)+modulator given at the optimal dose of 200 mg/kg po/survival time of mice treated with VCR alone.; type: functional

Description for KB: Percent of cell viability of KB-A1 human epidermoid carcinoma remaining after inoculation with the modulator alone
Description for P388: Percent of cell viability of P388/VCR-20 murine leukemia cells remaining after inoculation with the modulator alone

C=CCNc1nc(N2CCN(C(c3ccc(F)cc3)c3ccc(F)cc3)CC2)nc2c1ncn2CC=C
Viability (KB): 103%
Viability (P388): 99%

C=CCNc1nc(N2CCC(NCC3c4ccccc4CCc4ccccc43)CC2)c2ncn(CC=C)c2n1
T/V (Mus musculus [1]): 1.19
Viability (KB): 95%
Viability (P388): 112%

C=CCNc1nc(N2CCC(NCC3c4ccccc4COc4ccccc43)CC2)nc2c1ncn2CC=C (stereo unspecified)
T/V (Mus musculus [1]): 1.36
Viability (KB): 108%
Viability (P388): 95%

C=CCn1ncc2c(NCCC)nc(N3CCC(NCC4c5ccccc5CCc5cc(OC)ccc54)CC3)nc21 (stereo unspecified)
T/V (Mus musculus [1]): 1.3
Viability (KB): 86%
Viability (P388): 98%

C=CCNc1nc(N2CCN(C(c3ccc(F)cc3)c3ccc(F)cc3)CC2)c2ncn(CC=C)c2n1
Viability (KB): 73%
Viability (P388): 98%

C=CCNc1nc(N2CCC(NC3c4ccccc4CCc4ccccc43)CC2)nc2c1ncn2CC=C
Viability (KB): 111%
Viability (P388): 111%

C=CCNc1nc(N2CCC(NCC3c4ccccc4CCc4ccccc43)CC2)nc2c1nnn2CC=C
T/V (Mus musculus [1]): 1.17
Viability (KB): 84%
Viability (P388): 83%

C=CCNc1nc(N2CCC(NCC3c4ccccc4C=Cc4ccccc43)CC2)c2ncn(CC=C)c2n1
T/V (Mus musculus [1]): 1.17
Viability (KB): 102%
Viability (P388): 119%

C=CCNc1nc(N2CCC(NCC3c4ccccc4C=Cc4ccccc43)CC2)nc2c1ncn2CC=C
Viability (KB): 110%
T/V (Mus musculus [2]): 1.21
Viability (P388): 111%

C=CCNc1nc(N2CCC(NCc3cccc4ccccc34)CC2)c2ncn(CC=C)c2n1
T/V (Mus musculus [1]): 1.31
Viability (KB): 106%
Viability (P388): 104%

C=CCNc1nc(N2CCC(NCC3c4ccccc4NC(=O)c4ccccc43)CC2)nc2c1ncn2CC=C (stereo unspecified)
T/V (Mus musculus [1]): 1.13
Viability (KB): 126%
Viability (P388): 106%

C=CCNc1nc(N2CCC(NCC3CCCCc4ccccc43)CC2)nc2c1ncn2CC=C (stereo unspecified)
Viability (KB): 122%
T/V (Mus musculus [2]): 1.2
Viability (P388): 123%

C=CCNc1nc(N2CCC(NCC3c4ccccc4CCc4cc(OC)ccc43)CC2)nc2c1cnn2CC=C (stereo unspecified)
T/V (Mus musculus [1]): 1.18
Viability (KB): 103%
Viability (P388): 90%

C=CCNc1nc(N2CCC(NCC3c4ccccc4N(C)S(=O)(=O)c4cc(Cl)ccc43)CC2)c2ncn(CC=C)c2n1 (stereo unspecified)
T/V (Mus musculus [3]): 1.03
Viability (KB): 141%
Viability (P388): 89%

C=CCNc1nc(N2CCC(NCC3c4ccccc4CCc4ccccc43)CC2)nc2c1cnn2CC=C
T/V (Mus musculus [1]): 1.31
Viability (KB): 132%
Viability (P388): 74%

C=CCNc1nc(N2CCC(NC3c4ccccc4CCc4ccccc43)CC2)c2ncn(CC=C)c2n1
Viability (KB): 119%
Viability (P388): 120%

C=CCNc1nc(N2CCN(C(c3ccc(F)cc3)c3ccc(F)cc3)CC2)nc2ncn(CC=C)c12
Viability (KB): 104%
Viability (P388): 97%

C=CCNc1nc(N2CCC(NCC(c3ccccc3)c3ccccc3)CC2)nc2c1ncn2CC=C
T/V (Mus musculus [1]): 1.3
Viability (KB): 115%
Viability (P388): 93%

C=CCNc1nc(N2CCC(NCC(c3ccc(F)cc3)c3ccc(F)cc3)CC2)c2ncn(CC=C)c2n1
Viability (KB): 106%
Viability (P388): 108%

C=CCNc1nc(N2CCC(NCC3c4ccccc4CCc4ccccc43)CC2)nc2c1ncn2CCC
T/V (Mus musculus [1]): 1.31
Viability (KB): 107%
Viability (P388): 102%

C=CCNc1nc(N2CCC(NCC3c4ccccc4CCc4cc(OC)ccc43)CC2)nc2c1ncn2CC=C (stereo unspecified)
T/V (Mus musculus [1]): 1.54
Viability (KB): 108%
Viability (P388): 114%

C=CCNc1nc(N2CCC(NCC(c3ccc(F)cc3)c3ccc(F)cc3)CC2)nc2c1ncn2CC=C
T/V (Mus musculus [1]): 1.49
Viability (KB): 120%
Viability (P388): 95%

C=CCNc1nc(N2CCC(NCC(c3ccccc3)(c3ccccc3)c3ccccc3)CC2)nc2c1ncn2CC=C
T/V (Mus musculus [1]): 1.3
Viability (KB): 127%
Viability (P388): 119%

C=CCn1cnc2c(NCCC)nc(N3CCC(NCC4c5ccccc5CCc5ccccc54)CC3)nc21
Viability (KB): 112%
T/V (Mus musculus [2]): 1.38
Viability (P388): 103%

C=CCNc1nc(N2CCC(NCC3c4ccccc4CCc4cc(OC)c(OC)c(OC)c43)CC2)nc2c1ncn2CC=C (stereo unspecified)
T/V (Mus musculus [1]): 1.16
Viability (KB): 86%
Viability (P388): 96%

C=CCNc1nc(N2CCC(NCc3cccc4ccccc34)CC2)nc2c1ncn2CC=C
T/V (Mus musculus [1]): 1.33
Viability (KB): 110%
Viability (P388): 80%

C=CCNc1nc(N2CCC(NCC3c4ccccc4N(CCC)S(=O)(=O)c4ccccc43)CC2)nc2c1ncn2CC=C (stereo unspecified)
T/V (Mus musculus [1]): 1.21
Viability (KB): 145%
Viability (P388): 96%

C=CCNc1nc(N2CCC(NCC3c4ccccc4N(C)S(=O)(=O)c4cc(Cl)ccc43)CC2)nc2c1ncn2CC=C (stereo unspecified)
T/V (Mus musculus [1]): 1.13
Viability (KB): 121%
Viability (P388): 70%

C=CCNc1nc(N2CCC(NCC3c4ccccc4CCc4cc(OC)ccc43)CC2)c2ncn(CC=C)c2n1 (stereo unspecified)
T/V (Mus musculus [1]): 1.06
Viability (KB): 91%
Viability (P388): 131%

C=CCNc1nc(N2CCC(NCC3Cc4ccccc4Cc4ccccc43)CC2)nc2c1ncn2CC=C (stereo unspecified)
T/V (Mus musculus [1]): 1.42
Viability (KB): 104%
Viability (P388): 98%

CCCNc1nc(N2CCC(NCC3c4ccccc4CCc4ccccc43)CC2)nc2c1ncn2CCC
T/V (Mus musculus [1]): 1.57
Viability (KB): 127%
Viability (P388): 98%

C=CCNc1nc(N2CCC(NCC3c4ccccc4CCc4ccccc43)CC2)nc2c1ccn2CC=C
T/V (Mus musculus [1]): 1.24
Viability (KB): 86%
Viability (P388): 126%

C=CCNc1nc(N2CCC(NCC3c4ccccc4COc4ccccc43)CC2)c2ncn(CC=C)c2n1 (stereo unspecified)
Viability (KB): 110%
Viability (P388): 91%

C=CCNc1nc(NCC=C)nc(N2CCC(NCC(c3ccc(F)cc3)c3ccc(F)cc3)CC2)n1
T/V (Mus musculus [4]): 1.19
Viability (KB): 111%
Viability (P388): 93%

C=CCNc1nc(N2CCC(NC3c4ccccc4N(C)S(=O)(=O)c4cc(Cl)ccc43)CC2)nc2c1ncn2CC=C (stereo in doubt; 11)
T/V (Mus musculus [1]; 100 mg/kg): 1.27
Viability (KB): 60%
Viability (P388): 146%

C=CCNc1nc(N2CCC(NC3c4ccccc4N(C)S(=O)(=O)c4cc(Cl)ccc43)CC2)nc2c1ncn2CC=C (stereo in doubt; 12)
T/V (Mus musculus [1]; 100 mg/kg): 1.11
Viability (KB): 64%
Viability (P388): 135%
